Test results as given in patent US10526345B2, “Compounds as GPR119 agonists” (Mankind Pharma Ltd., priority 2016, dated 2020).

molecular target: T1, hGPR119 (Homo sapiens, UniProt Q8TDV5); experiment: In vitro cyclic AMP assay (Cisbio dynamic 2 HTRF kit) in CHO-hGPR119 cells; type: cell-based; conditions: 1 h, cAMP, compound at 1 μM, 60 min, read-out: Induction (% induction at 1 μM)
T1 construct: expressed in transfected cells; host or cells: CHO
T1 sequence (Q8TDV5 1-335): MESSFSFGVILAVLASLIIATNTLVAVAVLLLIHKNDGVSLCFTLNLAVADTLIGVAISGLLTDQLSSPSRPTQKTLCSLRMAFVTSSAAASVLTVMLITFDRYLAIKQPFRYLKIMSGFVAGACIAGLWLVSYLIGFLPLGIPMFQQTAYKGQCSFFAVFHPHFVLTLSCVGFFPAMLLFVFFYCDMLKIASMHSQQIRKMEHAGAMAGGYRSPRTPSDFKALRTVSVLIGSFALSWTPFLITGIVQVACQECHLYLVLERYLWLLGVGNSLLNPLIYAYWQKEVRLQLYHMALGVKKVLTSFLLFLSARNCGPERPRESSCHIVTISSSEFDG

Row | SMILES | activation at 1 µM [%]
1 | CC(C)c1noc(N2CCC(C(C)Oc3nc4ccc(-c5ccnc(F)c5)nc4s3)CC2)n1 (stereo not shown) [Compound 1081, 5-(4-(1-((5-(2-fluoropyridin-4-yl)thiazolo[5,4-b]pyridin-2-yl)oxy)ethyl)piperidin-1-yl)-3-isopropyl-1,2,4-oxadiazole] | 82
2 | COCCNC(=O)c1ccc(-c2ccc3nc(N4CCC(c5nc(C(C)C)no5)CC4)sc3n2)cc1 [Compound 1024, 4-(2-(4-(3-isopropyl-1,2,4-oxadiazol-5-yl)piperidin-1-yl)thiazolo[5,4-b]pyridin-5-yl)-N-(2-methoxyethyl)benzamide] | 53
3 | CC(C)c1noc(C2CCN(c3nc4ccc(-c5ccc(C(=O)N(C)C)cc5)nc4s3)CC2)n1 [Compound 1022, 4-(2-(4-(3-isopropyl-1,2,4-oxadiazol-5-yl)piperidin-1-yl)thiazolo[5,4-b]pyridin-5-yl)-N,N-dimethylbenzamide] | 35
4 | CC(C)c1noc(N2CCC(C(C)Oc3nc4ccc(-c5ccc(N6CCCC6=O)nc5)nc4s3)CC2)n1 (stereo not shown) [Compound 1146, 1-(5-(2-(1-(1-(3-isopropyl-1,2,4-oxadiazol-5-yl)piperidin-4-yl)ethoxy)thiazolo[5,4-b]pyridin-5-yl)pyridin-2-yl)pyrrolidin-2-one] | 61
5 | CC(C)c1noc(N2CCC(C(C)Oc3nc4ccc(-c5cncs5)nc4s3)CC2)n1 (stereo not shown) [Compound 1121, 3-isopropyl-5-(4-(1-((5-(thiazol-5-yl)thiazolo[5,4-b]pyridin-2-yl)oxy)ethyl)piperidin-1-yl)-1,2,4-oxadiazole] | 30
6 | CC(C)c1noc(C2CCN(c3ccc4nc(-c5ccc(S(C)(=O)=O)cc5)sc4n3)CC2)n1 [Compound 1003, 3-isopropyl-5-(1-(2-(4-(methylsulfonyl)phenyl)thiazolo[5,4-b]pyridin-5-yl)piperidin-4-yl)-1,2,4-oxadiazole] | 29
7 | CCc1cnc(N2CCC([C@H](C)Oc3nc4ccc(-c5ccc(C(F)(F)F)nc5)nc4s3)CC2)nc1 [Compound 1154, (S)-2-(1-(1-(5-ethylpyrimidin-2-yl)piperidin-4-yl)ethoxy)-5-(6-(trifluoromethyl)pyridin-3-yl)thiazolo[5,4-b]pyridine] | 65

The next lines start with the values.

Row | activation at 1 µM [%] | SMILES
8 | 58 | CC(C)c1noc(N2CCC(C(C)Oc3nc4ccc(-c5ccc(S(=O)(=O)C6CC6)cc5)nc4s3)CC2)n1 (stereo not shown) [Compound 1063, 5-(4-(1-((5-(4-(cyclopropylsulfonyl)phenyl)thiazolo[5,4-b]pyridin-2-yl)oxy)ethyl)piperidin-1-yl)-3-isopropyl-1,2,4-oxadiazole]
9 | 2 | CC(Oc1nc2ccc(-c3ccc(S(C)(=O)=O)cc3)nc2s1)C1CCN(C(=O)OC2(C)CC2)CC1 (stereo not shown) [Compound 1117, 1-methylcyclopropyl 4-(1-((5-(4-(methylsulfonyl)phenyl)thiazolo[5,4-b]pyridin-2-yl)oxy)ethyl)piperidine-1-carboxylate]
10 | 19 | CC(C)OC(=O)N1CC=C(c2nc3ccc(-c4ccc(S(C)(=O)=O)cc4)nc3s2)CC1 [Compound 1011, isopropyl 4-(5-(4-(methylsulfonyl)phenyl)thiazolo[5,4-b]pyridin-2-yl)-5,6-dihydropyridine-1(2H)-carboxylate]
11 | 48 | CC(C)c1noc(N2CCC(C(Oc3nc4ccc(-c5ccc(S(C)(=O)=O)cc5)nc4s3)C3CC3)CC2)n1 (stereo not shown) [Compound 1040, 5-(4-(cyclopropyl((5-(4-(methylsulfonyl)phenyl)thiazolo[5,4-b]pyridin-2-yl)oxy)methyl)piperidin-1-yl)-3-isopropyl-1,2,4-oxadiazole]
12 | 24 | CC(C)c1noc(N2CCC(C(C)Oc3nc4ccc(-c5ccc(C(=O)N6CCOCC6)cc5)nc4s3)CC2)n1 (stereo not shown) [Compound 1051, (4-(2-(1-(1-(3-isopropyl-1,2,4-oxadiazol-5-yl)piperidin-4-yl)ethoxy)thiazolo[5,4-b]pyridin-5-yl)phenyl)(morpholino)methanone]

same assay, conditions: cAMP

Row | SMILES | EC50 [nM]
13 | CCc1cnc(N2CCC([C@H](C)Oc3nc4ccc(-c5ccc(C(F)(F)F)nc5)nc4s3)CC2)nc1 [Compound 1154, (S)-2-(1-(1-(5-ethylpyrimidin-2-yl)piperidin-4-yl)ethoxy)-5-(6-(trifluoromethyl)pyridin-3-yl)thiazolo[5,4-b]pyridine] | 25 to 50
